Results as given in patent US20090028847A1, “MULTIPLE MYELOMA AND AL AMYLOID IMMUNOTHERAPY TARGETING IMMUNOGLOBULIN LIGHT CHAINS AND USES THEREOF” (TRUSTEES OF BOSTON UNIVERSITY, priority 2007, published 2009).

What was measured:
[1] = test system: JY cells transfected with full length λ6 gene; assay: Chromium-release killing assay with CTL from peptide-immunized HHD mice, JY cells transfected with full length λ6 gene; assay type: in vivo; conditions: FIG. 4
Description: (§1) Mice: HHD mice on […] background, transgenic for human MHC Class I (α1 and α2 domains from HLAA*0201, α3 domain from […]) and knockout of H2-D^b (mouse MHC Class I).
(§2) Immunizations: 200 μg peptide plus 200 μg HBVc “helper” peptide (to elicit CD4+ T cell help), emulsified in […] Freud's Adjuvant (IFA) is used to immunize the HHD mice subcutaneously in the lower abdominal area.
(§3) Mouse T Cell Culture: Spleens were harvested from the mice and dissociated using sterile frosted glass slides to yield single-cell suspension. Spleenocytes are plated at approximately 1×10^6 cells/ml and 10% FBS supplemented with L-glutamine, non-essential amino acids and β2-mercaptoethanol. Ex vivo cells were stimulated with 10 μg/ml peptide and fed every 2-3 days with medium and 2 ng/ml rIL-2 for 7-10 days.
(§4) Cell Lines: Human cell lines which naturally express the HLAA*0201 allele of MHC Class I are grown in RPMI 1640 and 10% FBS supplemented with L-glutamine. […]
(§5) Killing Assay: Target cell lines are loaded with radioactive sodium chromate (^51Cr) and pulsed with 20 μg/ml peptide or as a negative control peptide, flu matrix protein MP-58. […] Supernatants are harvested from each well and assayed for radioactive chromium indicating release from lysed cells. % specific lysis was determined by subtracting the control minimum release from experimental wells and dividing by maximum-minimum release. […]

[2] = test system: Ig λ2-expressing U266 multiple myeloma plasma cells; assay: Chromium-release killing assay with CTL from peptide-immunized HHD mice, U266 targets; assay type: ex vivo; conditions: FIG. 5
Description: as §1, §2, §3, §4, §5

HLA-A2 = HLA-A2 (Homo sapiens, UniProt P04439, D140Y/D185E/D98H/E176V/E277Q/G131W/G231S/I119V/I121R/I166T/I218V/L300P/L318F/N151K/N90K/P208A/P217A/Q86G/Q94H/R138H/R169H/T345S); assay: Cell-based fluorescence peptide/MHC (HLA-A2) binding and stability assay; conditions: for peptide binding to HLA-A2: FIG. 1, fluorescence shift (FL1) in presence vs absence of peptide
Text: The native Ig λ62-10 is shown in panel A, and the heteroclitic Ig λ62-10 is show in panel B, with the shift to the right (filled in curve) in the presence of the compared to their absence (unfilled curve) indicating Ig λ62-10 peptide binding to HLA-A2 (FL1).
The inventors discovered, using Ig light chain sequencing studies with bone marrow aspirates from 264 AL amyloid subjects the relative frequency of light chain subtypes in AL amyloidosis. Selecting the over-represented light chains in AL amyliod subjects, the inventors evaluated the affinity for formation of stable complexes for the HLA-A*0201 (HLA-A2)-binding peptides using three algorithms to predict the stability of peptide-MHC class I complexes. One such subtype (lambda 6; 16% of all AL amyloidosis cases) contains a conserved framework I sequence (lambda 6 (2-10)) predicted to bind stably to HLA-A2. The inventors confirmed this prediction using a standard fluorescence assay. Subsequently, the inventors tested the ability to induce CTL capable of lysing peptide-pulsed or Ig lambda 6-expressing human B cell tumors by immunizing HLA-A2 transgenic, (HHD) mice (Firat et al, 1999) with the lambda 6 (2-10) peptide. The investigators also tested the ability of lambda 6 (2-10) peptide-induced CTL to cross-react with plasma cells expressing a related lambda light chain subtype (lambda 2). Using public web-based algorithms we identified potential immunogenic peptides from a human immunoglobulin light chain (lambda 6) which causes 16-20% of all AL amyloidosis. Culture based assays supported the likelihood that the identified peptide would be immunogenic.

[3] = test system: B cell lymphoblastoma (JY) cells pulsed with peptide; assay: Chromium-release killing assay with CTL from peptide-immunized HHD mice, peptide-pulsed JY targets; assay type: ex vivo; conditions: for CTL lysis of peptide-pulsed target cells: T cells of HHD mice immunized with the peptide, not with negative control peptide
Description: as §1, §2, §3
Cell Lines: Human cell lines which naturally express the HLAA*0201 allele of MHC Class I are grown in RPMI 1640 and 10% FBS supplemented with L-glutamine. Cell lines include the JY and U66 lymphobastoma cell lines of B cell origin and the T2 cell line of T cell origin.
Killing Assay: Target cell lines are loaded with radioactive sodium chromate (^51Cr) and pulsed with 20 μg/ml peptide or as a negative control peptide, flu matrix protein MP-58. Spleen cells are plated with targets at various effector target ratios and incubated at 37° C., 5% CO2 overnight. Supernatants are harvested from each well and assayed for radioactive chromium indicating release from lysed cells. % specific lysis was determined by subtracting the control minimum release from experimental wells and dividing by maximum-minimum release.
Statistics: Statistical analysis was performed with Statview. Data from killing assays of a minimum of three mice are presented as means ± standard errors (SE). ANOVA was used to determine the statistical significance compared to the negative control peptide.

[4] = molecular target: T1, HLA-A*0201 (HLA-A2) on cells (human); assay: flow cytometry, HLA-A2 fluorescence (FL1) on cells with and without peptide
T1 construct: whole, on cells; also called MHC Class I

[5] = T cells of HHD mice immunized with the peptide

With “FMLTQPHSV [λ62-10, 9mer from framework 1 of the human lambda 6 immunoglobulin light chain]” the “CTL lysis of targets transfected with full length λ6 gene” value [1, 5] was “lysed targets transfected with the gene for the full length λ6 protein”, the “mice that produced a CTL response” value ([1]; of 16 mice immunized) was 13 mice and the “CTL lysis of U266 target cells” value [2, 5] was “lysed U266 target cells pulsed with the λ6 peptide as well as U266 cells not pulsed with a peptide”. For the same molecule, the “mice that produced a CTL response” value ([2]; of 11 mice immunized) was 8 mice, the “peptide binding to HLA-A2” value (HLA-A2) was “binds to HLA-A2” and the “CTL lysis of peptide-pulsed target cells” value [3] was “lysed target cells pulsed with the λ6 peptide”. For the same molecule, the “mice that produced a CTL response” value ([3]; of 24 mice immunized, FIG. 2) was 17 mice.

With “SLFPRLYPV (listed as Mus musculus) [mBlimp470-478, native peptide of the murine Blimp-1 protein]” the “CTL lysis of peptide-pulsed target cells” value [3] was “lysed target cells pulsed with the native murine Blimp470-478 peptide” and the “mice that produced a CTL response” value ([3]; of 12 mice immunized, FIG. 7) was 10 mice.

In the case of “YLFPRLYPV (listed as Mus musculus) [heteroclitic mBlimp470-478, heteroclitic variant of mBlimp470-478]”, the “CTL lysis of peptide-pulsed target cells” value [3] is reported as “lysed target cells pulsed with the hc murine Blimp470-478 peptide” and the “mice that produced a CTL response” value ([3]; of 10 mice immunized, FIG. 8) is reported as 7 mice.

With “YMLTQPHSV [het λ62-10, heteroclitic variant of lambda 6(2-10), substitution at position 1]” the “peptide binding to HLA-A2” value (HLA-A2; listed as YMLTQPHSV (SEQ ID NO: 2)) was “higher affinity”, the “peptide binding to HLA-A2” value (HLA-A2; listed as heteroclitic Ig λ62-10) was “binds to HLA-A2” and the “stability of peptide/MHC complex” value (HLA-A2; FIG. 9, as early as 2 hours and over at least 24 hours) was “more stable than the native lambda 6 peptide”. For the same molecule, the “CTL lysis of peptide-pulsed target cells” value [3] was “lysed target cells pulsed with either heteroclitic λ6 peptide or the native λ6 peptide” and the “mice that produced a CTL response” value ([3]; of 8 mice immunized, FIG. 3) was 7 mice.

FMLTQPHSV (also called λ62-10; Ig λ62-10) [lambda 6(2-10) peptide]: binds [4].

B1: heteroclitic lambda 6(2-10) peptide (peptide)
peptide: YMLTQPHSV
notes: Variant of the native lambda 6(2-10) peptide with one substitution at position 1 of the 9mer; also called het λ62-10; heteroclitic Ig λ62-10
B1: binds [4].
